This passage reports ΔTm results from PMC11840788, “3,3′-Diindolylmethane (DIM): A Molecular Scaffold for Inhibition of WWP1 and WWP2, Members of the NEDD4 Family HECT E3 Ligases” (ACS Omega, 2025).

As a reminder, the ΔTm is the change in melting temperature against a reference sample.

This assay addresses T1, WWP1-2L34H (Homo sapiens, UniProt Q9H0M0).
T1 construct: WWP1-WW2-2,3-linker-WW3-WW4-HECT (WWP1-2L34H); His-Trx (3C site) (N, cleaved yes); made in house; host or cells: E. coli BL21-CodonPlus RP (plasmid pET32a-WWP1-2L34H, gift of Dr Wenyu Wen)
As to the kind of experiment: differential scanning fluorimetry (DSF), WWP1. The conditions noted are these: 100 μM compound, 0.1% DMSO, Boltzmann fit. It counts as binding. The text has this:
Differential scanning fluorimetry (DSF) was utilized to initially assess interactions of I3C with both WWP1 and WWP2. Although binding of I3C to WWP1 has been reported previously,[25] we wanted to determine whether such interactions are observed with a protein construct containing the WW2 domain, given its proximity to the proposed exo binding site. In this regard, the WWP1-WW2-2,3-linker-WW3-WW4-HECT (WWP1-2L34H) and WWP2-WW2-2,3-linker-HECT (WWP2-LH) constructs were chosen (SI Figure S2) and DSF assays performed using 100 μM I3C (0.1% DMSO) with midpoint melting temperature (Tm) determined by fitting a Boltzmann regression to the melting curve (Figure 2A). Three independent repeat experiments were performed. […] This is in marked contrast to that seen when using the simple WWP1 HECT domain as a target.[30]
A 96 well-plate (MicroAmp Optical) was loaded with 18 μL of 3.8 μM WWP1-2L34H and 2.5 μM WWP2-LH, in their respective buffers (SI Table S5) containing 5 × SYPRO orange dye. […] The plates were briefly centrifuged before the assay was run using an ABI 7500 RT-PCR following the melt curve using ROX (575 nm) as the “preset” fluorescence dye. […] The midpoint melting temperature (Tm) was calculated using a Boltzmann fit to the fluorescence curve using Protein Thermal Shift Software v1.4 (ThermoFisher). […]
In general terms: In DSF a fluorescence change marks the thermal transition of the protein.

T1 sequence (Q9H0M0 379-922 limits assumed): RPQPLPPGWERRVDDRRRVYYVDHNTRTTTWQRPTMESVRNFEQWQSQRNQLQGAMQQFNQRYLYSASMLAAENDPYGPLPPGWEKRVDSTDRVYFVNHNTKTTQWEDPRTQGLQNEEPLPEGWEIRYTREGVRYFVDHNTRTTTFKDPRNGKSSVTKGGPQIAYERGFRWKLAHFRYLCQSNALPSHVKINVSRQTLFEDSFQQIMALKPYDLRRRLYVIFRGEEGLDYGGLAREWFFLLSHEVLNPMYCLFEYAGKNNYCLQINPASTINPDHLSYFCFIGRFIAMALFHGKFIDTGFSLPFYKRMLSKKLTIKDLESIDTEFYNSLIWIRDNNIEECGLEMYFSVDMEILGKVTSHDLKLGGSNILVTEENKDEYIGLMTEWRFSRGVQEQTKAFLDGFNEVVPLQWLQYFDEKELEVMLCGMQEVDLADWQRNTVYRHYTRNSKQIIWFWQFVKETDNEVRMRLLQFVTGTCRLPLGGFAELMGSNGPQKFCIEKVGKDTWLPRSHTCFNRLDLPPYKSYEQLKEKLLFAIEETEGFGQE

`OCc1c[nH]c2ccccc12` [Compound I3C, Indole-3-carbinol, reference compound]: the ΔTm at 100 µM was found to be 0.47 ± 0.15 °C.
